Measured values: patent US4595694A, “Azulene derivatives, processes of their synthesis and their uses as anti-ulcerative and anti-inflammatory agents” (Kotobuki Seiyaku Co. Ltd., priority 1983, dated 1986)
Counter-ions that a name gives are not always drawn.

system: not listed separately; assay: Acute toxicity (Litchfield & Wilcoxon method); conditions: rat, in vivo, ip, I.P., female; 95% confidence limits
Description: The acute toxicity of Compound 3 is determined by Litchfield & Wilcoxon method using SD rats.

| SMILES | LD50 [mg/kg] |
| --- | --- |
| CCc1cc(S(=O)(=O)O)c2cc(C(C)C)cccc1-2 [compound 3, Sodium 3-ethyl-7-isopropyl-azulene sulfonate] | 180 |

same assay, conditions: rat, in vivo, ip, I.P., male; 95% confidence limits

| SMILES | LD50 [mg/kg] |
| --- | --- |
| CCc1cc(S(=O)(=O)O)c2cc(C(C)C)cccc1-2 [compound 3, Sodium 3-ethyl-7-isopropyl-azulene sulfonate] | 165 |

same assay, conditions: rat, in vivo, iv, I.V., female; 95% confidence limits

| SMILES | LD50 [mg/kg] |
| --- | --- |
| CCc1cc(S(=O)(=O)O)c2cc(C(C)C)cccc1-2 [compound 3, Sodium 3-ethyl-7-isopropyl-azulene sulfonate] | 153 |

same assay, conditions: rat, in vivo, iv, I.V., male

| SMILES | LD50 [mg/kg] |
| --- | --- |
| CCc1cc(S(=O)(=O)O)c2cc(C(C)C)cccc1-2 [compound 3, Sodium 3-ethyl-7-isopropyl-azulene sulfonate] | 130 |

same assay, conditions: rat, in vivo, po, P.O., female; 95% confidence limits

| SMILES | LD50 [mg/kg] |
| --- | --- |
| CCc1cc(S(=O)(=O)O)c2cc(C(C)C)cccc1-2 [compound 3, Sodium 3-ethyl-7-isopropyl-azulene sulfonate] | 1200 |

same assay, conditions: rat, in vivo, po, P.O., male; 95% confidence limits

| SMILES | LD50 [mg/kg] |
| --- | --- |
| CCc1cc(S(=O)(=O)O)c2cc(C(C)C)cccc1-2 [compound 3, Sodium 3-ethyl-7-isopropyl-azulene sulfonate] | 1000 |

system: Shay's rat; assay: Anti-ulcerative activity, pylorus ligation (Shay's rat); assay type: in vivo; conditions: 100 mg/kg, perorally, 16 hours after ligation
Description: In order to ascertain the anti-ulcerative activity […], Shay's rat (Gastro enterology 26, P. 906) is selected. Rats are fasted for 48 hours and pylorus ligation is carried out under light anesthesia. Drug is given perorally. 16 hours after ligation the animals are sacrificed and the stomach is removed. The induced erosion is measured in area and scored as ulcer index (U.I.). The data are expressed as % inhibition to the control value from the equation described below.

| SMILES | % inhibition (ulcer index) [%] |
| --- | --- |
| Cc1cc(S(=O)(=O)O)c2cc(C(C)C)cccc1-2 [compound 13, Sodium 3-methyl-7-isopropyl-azulene sulfonate] | 69.7 |

same assay, conditions: Rattus norvegicus, po, 16 h, 100 mg/kg, perorally, 16 hours after ligation; read-out: % inhibition (ulcer index)

| SMILES | inhibition in vivo at 100 mg/kg [%] |
| --- | --- |
| CCCc1cc(S(=O)(=O)O)c2cccccc1-2 [compound 12, Sodium 3-propyl-azulene sulfonate] | 78.5 |
| CCCCc1cc(S(=O)(=O)O)c2cccccc1-2 [compound 14, Sodium 3-n-butyl-azulene sulfonate] | 32.7 |
| CCCCCc1cc(S(=O)(=O)O)c2cccccc1-2 [compound 15, Sodium 3-n-pentyl-azulene sulfonate] | 64.3 |
| CC(C)c1cccc2c(S(=O)(=O)O)ccc-2c1 [compound 16, Sodium 5-isopropyl-azulene sulfonate] | 62 |
| CCCc1cc(S(=O)(=O)O)c2cc(C(C)C)cccc1-2 [compound 17, Sodium 7-isopropyl-3-n-propyl-azulene sulfonate] | 31.2 |
| CCCCc1cc(S(=O)(=O)O)c2cc(C(C)C)cccc1-2 [compound 18, Sodium 7-isopropyl-3-n-butyl-azulene sulfonate] | 17.2 |
| CCCCCc1cc(S(=O)(=O)O)c2cc(C(C)C)cccc1-2 [compound 19, Sodium 7-isopropyl-3-n-pentyl-azulene sulfonate] | -56.3 |
| CC(C)=CCCC(C)c1cc(S(=O)(=O)O)c2cc(C(C)C)cccc1-2 (centres unmarked) [compound 20, Sodium 7-isopropyl-3-(1'-R, S-1',5'-dimethyl-4'-hexene)-azulene sulfonate] | 43.8 |
| CC(C)=CCC[C@@H](C)c1cc(S(=O)(=O)O)c2cc(C(C)C)cccc1-2 [compound 21, Sodium 7-isopropyl-3-(1'-R-1',5'-dimethyl-4'-hexene)-azulene sulfonate] | 14.5 |
| CC(C)=CCC[C@H](C)c1cc(S(=O)(=O)O)c2cc(C(C)C)cccc1-2 [compound 22, Sodium 7-isopropyl-3-(1'-S-1',5'-dimethyl-4'-hexene)-azulene sulfonate] | -19.5 |
| CC(C)c1cccc2c(Cc3ccccc3)cc(S(=O)(=O)O)c-2c1 [compound 23, Sodium 7-isopropyl-3-benzyl-azulene sulfonate] | 9.8 |
| COc1ccccc2c(S(=O)(=O)O)cc(C)c1-2 [compound 24, Sodium 4-methoxy-3-methyl-azulene sulfonate] | 63.4 |
| CCc1cc(S(=O)(=O)O)c2ccccc(OC)c1-2 [compound 25, Sodium 4-methoxy-3-ethyl-azulene sulfonate] | 75.6 |
| CCCc1cc(S(=O)(=O)O)c2ccccc(OC)c1-2 [compound 26, Sodium 4-methoxy-3-propyl-azulene sulfonate] | 75.6 |
| CCCCc1cc(S(=O)(=O)O)c2ccccc(OC)c1-2 [compound 27, Sodium 4-methoxy-3-butyl-azulene sulfonate] | 66.3 |
| CCCCCc1cc(S(=O)(=O)O)c2ccccc(OC)c1-2 [compound 28, Sodium 4-methoxy-3-pentyl-azulene sulfonate] | 42 |
| CCCCCCc1cc(S(=O)(=O)O)c2ccccc(OC)c1-2 [compound 29, Sodium 4-methoxy-3-hexyl-azulene sulfonate] | 38 |
| COc1ccc(C(C)C)cc2c(S(=O)(=O)O)cc(C)c1-2 [compound 30, Sodium 7-isopropyl-4-methoxy-3-methyl-azulene sulfonate] | 58.7 |
| CCc1cc(S(=O)(=O)O)c2cc(C(C)C)ccc(OC)c1-2 [compound 31, Sodium 7-isopropyl-4-methoxy-3-ethyl-azulene sulfonate] | 67.6 |
| CCCc1cc(S(=O)(=O)O)c2cc(C(C)C)ccc(OC)c1-2 [compound 32, Sodium 7-isopropyl-4-methoxy-3-propyl-azulene sulfonate] | 44.1 |
| CCCCc1cc(S(=O)(=O)O)c2cc(C(C)C)ccc(OC)c1-2 [compound 33, Sodium 7-isopropyl-4-methoxy-3-butyl-azulene sulfonate] | 64.8 |
| CCCCCc1cc(S(=O)(=O)O)c2cc(C(C)C)ccc(OC)c1-2 [compound 34, Sodium 7-isopropyl-4-methoxy-3-pentyl-azulene sulfonate] | -14.6 |
| Cc1cc(S(=O)(=O)O)c2cccccc1-2 [compound 35, 3-methyl-azulene sulfonic acid aluminum salt] | 16.5 |
| CCc1cc(S(=O)(=O)O)c2cccccc1-2 [compound 36, 3-ethyl-azulene sulfonic acid aluminum salt] | 28.6 |
| Cc1cc(S(=O)(=O)O)c2cc(C(C)C)cccc1-2 [compound 37, 7-isopropyl-3-methyl-azulene sulfonic acid aluminum salt] | 58.4 |
| CCc1cc(S(=O)(=O)O)c2cc(C(C)C)cccc1-2 [compound 38, 7-isopropyl-3-ethyl-azulene sulfonic acid aluminum salt] | 40.3 |

same assay, conditions: Rattus norvegicus, po, 16 h, 500 mg/kg, perorally, 16 hours after ligation; read-out: % inhibition (ulcer index)

| SMILES | inhibition in vivo at 500 mg/kg [%] |
| --- | --- |
| Cc1cc(S(=O)(=O)O)c2cccccc1-2 [compound 1, Sodium 3-methyl-azulene sulfonate] | 52.4 |
| CCc1cc(S(=O)(=O)O)c2cccccc1-2 [compound 2, Sodium 3-ethyl-azulene sulfonate] | 100 |
| CCc1cc(S(=O)(=O)O)c2cc(C(C)C)cccc1-2 [compound 3, Sodium 3-ethyl-7-isopropyl-azulene sulfonate] | 100 |
| CCc1cc(S(=O)(=O)O)c2ccc(C(C)C)ccc1-2 [compound 4, Sodium 3-ethyl-6-isopropyl-azulene sulfonate] | 100 |
| CC(C)=CCCC(C)c1cc(S(=O)(=O)O)c2cccccc1-2 (centres unmarked) [compound 5, Sodium 3-(1'-R, S-1',5'-dimethyl-4'-hexene) azulene sulfonate] | 95.5 |
| CC(C)=CCC[C@H](C)c1cc(S(=O)(=O)O)c2cccccc1-2 [compound 8, Sodium 3-(1'-S-1',5'-dimethyl-4'-hexene)-azulene sulfonate] | 69.9 |

system: not listed separately; assay: Stability on storage (% residue of the original compound); assay type: physicochemical; conditions: 40° C., 96 hours
Source text: The data are expressed in % residue of the original compounds after the storage in each condition.

| SMILES | remaining at 96 h [%] |
| --- | --- |
| Cc1cc(S(=O)(=O)O)c2c(C)ccc(C(C)C)cc1-2 [GAS, sodium guaiazulene-3-sulfonate, reference compound] | 100 |
| CCc1cc(S(=O)(=O)O)c2cc(C(C)C)cccc1-2 [compound 3, Sodium 3-ethyl-7-isopropyl-azulene sulfonate] | 100 |

same assay, conditions: 60° C., 192 hours

| SMILES | remaining at 192 h [%] |
| --- | --- |
| Cc1cc(S(=O)(=O)O)c2c(C)ccc(C(C)C)cc1-2 [GAS, sodium guaiazulene-3-sulfonate, reference compound] | 51.3 |
| CCc1cc(S(=O)(=O)O)c2cc(C(C)C)cccc1-2 [compound 3, Sodium 3-ethyl-7-isopropyl-azulene sulfonate] | 100 |

same assay, conditions: 70° C., 240 hours

| SMILES | remaining at 240 h [%] |
| --- | --- |
| Cc1cc(S(=O)(=O)O)c2c(C)ccc(C(C)C)cc1-2 [GAS, sodium guaiazulene-3-sulfonate, reference compound] | 9.3 |
| CCc1cc(S(=O)(=O)O)c2cc(C(C)C)cccc1-2 [compound 3, Sodium 3-ethyl-7-isopropyl-azulene sulfonate] | 100 |

same assay, conditions: 80° C., 288 hours

| SMILES | remaining at 288 h [%] |
| --- | --- |
| Cc1cc(S(=O)(=O)O)c2c(C)ccc(C(C)C)cc1-2 [GAS, sodium guaiazulene-3-sulfonate, reference compound] | 1.5 |
| CCc1cc(S(=O)(=O)O)c2cc(C(C)C)cccc1-2 [compound 3, Sodium 3-ethyl-7-isopropyl-azulene sulfonate] | 100 |

same assay, conditions: compared with sodium guaiazulene sulfonate

| SMILES | stability, in words |
| --- | --- |
| CCc1cc(S(=O)(=O)O)c2cc(C(C)C)cccc1-2 [compound 3, Sodium 3-ethyl-7-isopropyl-azulene sulfonate] | greatly improved |

target: T1, pepsin (Sus scrofa, UniProt P00791); assay: Anti-peptic activity in vitro (bovine serum albumin as substrate); assay type: biochemical; conditions: obtained graphically; read-out: ID50 (50% inhibiting dose) (converted)
T1 construct: purchased
T1 sequence (P00791 60-385): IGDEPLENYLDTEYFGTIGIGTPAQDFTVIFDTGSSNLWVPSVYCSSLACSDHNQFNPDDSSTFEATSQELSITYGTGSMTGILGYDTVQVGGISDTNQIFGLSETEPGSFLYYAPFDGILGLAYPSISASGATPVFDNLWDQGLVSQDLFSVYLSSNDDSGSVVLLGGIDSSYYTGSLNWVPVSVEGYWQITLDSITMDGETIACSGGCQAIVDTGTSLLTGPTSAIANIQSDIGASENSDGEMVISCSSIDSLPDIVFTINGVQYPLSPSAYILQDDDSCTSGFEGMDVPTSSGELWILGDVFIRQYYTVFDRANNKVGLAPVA
Description: Anti-peptic activity of the compounds is tested in vitro according to V. K. Thiemer (Arznei-Forsch 22 (6), PP. 1086, 1972), using bovine serum albumin as a substrate and commercially available pepsin.
Also ID50 (50% inhibiting dose) is obtained graphically.

| SMILES | IC50 [µM] |
| --- | --- |
| Cc1cc(S(=O)(=O)O)c2c(C)ccc(C(C)C)cc1-2 [GAS, sodium guaiazulene-3-sulfonate, reference compound] | 1290 |
| CCc1cc(S(=O)(=O)O)c2cc(C(C)C)cccc1-2 [compound 3, Sodium 3-ethyl-7-isopropyl-azulene sulfonate] | 1070 |
| CCc1cc(S(=O)(=O)O)c2ccc(C(C)C)ccc1-2 [compound 4, Sodium 3-ethyl-6-isopropyl-azulene sulfonate] | 1830 |
| CC(C)=CCCC(C)c1cc(S(=O)(=O)O)c2cccccc1-2 (centres unmarked) [compound 5, Sodium 3-(1'-R, S-1',5'-dimethyl-4'-hexene) azulene sulfonate] | 3790 |

same assay, conditions: sample concentration 0.125 mg/ml

| SMILES | inhibition at 125 µg/mL [%] |
| --- | --- |
| Cc1cc(S(=O)(=O)O)c2c(C)ccc(C(C)C)cc1-2 [GAS, sodium guaiazulene-3-sulfonate, reference compound] | 14.6 |
| CCc1cc(S(=O)(=O)O)c2cc(C(C)C)cccc1-2 [compound 3, Sodium 3-ethyl-7-isopropyl-azulene sulfonate] | 17.3 |
| CCc1cc(S(=O)(=O)O)c2ccc(C(C)C)ccc1-2 [compound 4, Sodium 3-ethyl-6-isopropyl-azulene sulfonate] | 17.3 |
| CC(C)=CCCC(C)c1cc(S(=O)(=O)O)c2cccccc1-2 (centres unmarked) [compound 5, Sodium 3-(1'-R, S-1',5'-dimethyl-4'-hexene) azulene sulfonate] | 0.26 |

same assay, conditions: sample concentration 0.250 mg/ml

| SMILES | inhibition at 250 µg/mL [%] |
| --- | --- |
| Cc1cc(S(=O)(=O)O)c2c(C)ccc(C(C)C)cc1-2 [GAS, sodium guaiazulene-3-sulfonate, reference compound] | 50.4 |
| CCc1cc(S(=O)(=O)O)c2cc(C(C)C)cccc1-2 [compound 3, Sodium 3-ethyl-7-isopropyl-azulene sulfonate] | 47.6 |
| CCc1cc(S(=O)(=O)O)c2ccc(C(C)C)ccc1-2 [compound 4, Sodium 3-ethyl-6-isopropyl-azulene sulfonate] | 28.9 |
| CC(C)=CCCC(C)c1cc(S(=O)(=O)O)c2cccccc1-2 (centres unmarked) [compound 5, Sodium 3-(1'-R, S-1',5'-dimethyl-4'-hexene) azulene sulfonate] | 3.57 |

same assay, conditions: sample concentration 0.500 mg/ml

| SMILES | inhibition at 500 µg/mL [%] |
| --- | --- |
| Cc1cc(S(=O)(=O)O)c2c(C)ccc(C(C)C)cc1-2 [GAS, sodium guaiazulene-3-sulfonate, reference compound] | 58.6 |
| CCc1cc(S(=O)(=O)O)c2cc(C(C)C)cccc1-2 [compound 3, Sodium 3-ethyl-7-isopropyl-azulene sulfonate] | 63.6 |
| CCc1cc(S(=O)(=O)O)c2ccc(C(C)C)ccc1-2 [compound 4, Sodium 3-ethyl-6-isopropyl-azulene sulfonate] | 65.7 |
| CC(C)=CCCC(C)c1cc(S(=O)(=O)O)c2cccccc1-2 (centres unmarked) [compound 5, Sodium 3-(1'-R, S-1',5'-dimethyl-4'-hexene) azulene sulfonate] | 24.5 |

same assay, conditions: sample concentration 1.000 mg/ml

| SMILES | inhibition at 1000 µg/mL [%] |
| --- | --- |
| Cc1cc(S(=O)(=O)O)c2c(C)ccc(C(C)C)cc1-2 [GAS, sodium guaiazulene-3-sulfonate, reference compound] | 75.1 |
| CCc1cc(S(=O)(=O)O)c2cc(C(C)C)cccc1-2 [compound 3, Sodium 3-ethyl-7-isopropyl-azulene sulfonate] | 97.1 |
| CCc1cc(S(=O)(=O)O)c2ccc(C(C)C)ccc1-2 [compound 4, Sodium 3-ethyl-6-isopropyl-azulene sulfonate] | 55.8 |
| CC(C)=CCCC(C)c1cc(S(=O)(=O)O)c2cccccc1-2 (centres unmarked) [compound 5, Sodium 3-(1'-R, S-1',5'-dimethyl-4'-hexene) azulene sulfonate] | 50.4 |
